From ChEMBL document CHEMBL1201862, “PubChem BioAssay data set” (2004)
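Assay format: 96-well plates, 48-hour exposure. GI50: concentration for 50% inhibition of growth.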 Calls of active or inactive are those of the source. Cut-off read from the data, not from the text of the source: active = GI50 up to about 1.1 µM and inactive = higher.

Experiments:
Assay in all cases: NCI tumour cell line growth inhibition, 48 h
[1] = system: XF498
[2] = system: BT-549
[3] = system: MDA-MB-435
[4] = system: PC-3
[5] = system: SR
[6] = system: T47D
[7] = system: LXFL 529
[8] = system: RXF 631

| SMILES | GI50 [1] | GI50 [2] | GI50 [3] | GI50 [4] | GI50 [5] | GI50 [6] | GI50 [7] | GI50 [8] |
| --- | --- | --- | --- | --- | --- | --- | --- | --- |
| CSc1nc(NC2OC(CO)C(O)C(O)C2O)c(N)c(=O)[nH]1 (configuration not stated) | > 100 µM (inactive) |  |  |  |  |  |  |  |
| NC(CCP(=O)(O)CCC1C=CC=CC1)C(=O)O (configuration not stated) |  | > 100 µM (inactive) | > 100 µM (inactive) | > 100 µM (inactive) | > 100 µM (inactive) | > 100 µM (inactive) |  |  |
| COc1ccc(C2SCc3nc4ccccc4n32)cc1 (configuration not stated) | 0.124 µM (active) |  |  |  |  |  | 5.48 µM (inactive) | 7.26 µM (inactive) |
| O=C(Nc1ccccc1F)c1c(O)nc2sccn2c1=O |  |  | > 10 µM (inactive) | > 10 µM (inactive) | > 10 µM (inactive) | > 10 µM (inactive) |  |  |
| CCOC(=O)CSc1nc(N)c2c(-c3ccc(OC)c(OC)c3)c3c(nc2n1)CCCC3 |  | 61.9 µM (inactive) | > 100 µM (inactive) | > 100 µM (inactive) | > 100 µM (inactive) | > 100 µM (inactive) |  |  |
| COc1ccc2c(c1O)-c1cc(O)cc3c1[C@@H](C2)N(C)CC3 | 93.8 µM (inactive) |  |  |  |  |  |  |  |
| C[C@]12CC[C@@H]3c4ccc(OCCN5CCCC5)cc4CC[C@H]3[C@@H]1CCC2=O |  |  | 42.7 µM (inactive) | 23.7 µM (inactive) | 29.9 µM (inactive) | 36.1 µM (inactive) |  |  |
| CNC(=O)SCC(N)C(=O)O (configuration not stated) | 84.9 µM (inactive) |  |  |  |  |  |  |  |
| Cn1c(=O)[nH]c2nncnc2c1=O | 54.2 µM (inactive) |  |  |  |  |  |  |  |
| CCOC(=O)CCC(NC(=O)OCc1ccccc1)C(=O)NC(CCC(=O)OCC)C(=O)NNC(=O)OC(C)(C)C (configuration not stated) |  | > 100 µM (inactive) | > 100 µM (inactive) | 38.8 µM (inactive) | > 100 µM (inactive) | > 100 µM (inactive) |  |  |
| O=C(c1ccccc1)c1ccc2n[se]nc2c1 |  |  |  |  |  |  | 69.8 µM (inactive) | 18.8 µM (inactive) |
